Measured values as given in patent publication US8178690B2, “Compounds and methods for inhibiting the interaction of BCL proteins with binding partners” (Infinity Pharmaceuticals, Inc., priority 2006, dated 2012).

Key:
[1] = target: Bcl-xL (Homo sapiens, UniProt Q07817); assay: Bcl-xL binding affinity analysis (fluorescence polarization binding assay); settings: read-out: BcI-XI (Ki, Bcl-xL binding affinity)
Source text: (§1) Bcl-2 and Bcl-xL binding may be determined using a variety of known methods. One such assay is a sensitive and quantitative in vitro binding assay using fluorescence polarization (FP) described by Wang, J.-L.; Zhang, Z-J.; Choksi, S.; Sjam. S.; Lu, Z.; Croce, C. M.; Alnemri, E. S.; Komgold, R.; Huang, Z. Cell permeable Bcl-2 binding peptides: a chemical approach to apoptosis induction in tumor cells. Cancer Res. 2000, 60, 1498-1502).
(§2) Bcl-2 and Bcl-xL binding affinity analysis data is presented below for various compounds of the invention.

[2] = target: Bcl-2 (Homo sapiens, UniProt P10415); assay: Bcl-2 binding affinity analysis (fluorescence polarization binding assay); settings: read-out: BcI2 (Ki, Bcl-2 binding affinity)
Source text: as §1, §2

Bcl-2, sequence (P10415 whole entry): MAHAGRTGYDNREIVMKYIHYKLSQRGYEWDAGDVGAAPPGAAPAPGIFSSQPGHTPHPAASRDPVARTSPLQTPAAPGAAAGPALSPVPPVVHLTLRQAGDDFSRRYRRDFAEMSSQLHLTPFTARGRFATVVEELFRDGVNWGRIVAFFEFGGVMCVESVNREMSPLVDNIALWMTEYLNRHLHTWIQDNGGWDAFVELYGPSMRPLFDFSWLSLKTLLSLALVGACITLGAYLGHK
Bcl-xL, sequence (Q07817 whole entry): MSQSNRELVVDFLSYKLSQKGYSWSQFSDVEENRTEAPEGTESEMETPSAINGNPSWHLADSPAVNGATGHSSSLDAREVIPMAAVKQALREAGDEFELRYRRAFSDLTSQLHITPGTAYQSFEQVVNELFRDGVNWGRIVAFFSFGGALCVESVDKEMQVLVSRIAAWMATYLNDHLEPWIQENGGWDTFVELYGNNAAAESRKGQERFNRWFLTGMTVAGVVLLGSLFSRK

SMILES | Ki [1] | Ki [2]
CNC(=O)O[C@@H](C)[C@@H]1[C@H](CN)ON(Cc2cccc(-c3cc(C(=O)NC)cc(N(C)C)c3)c2OC)[C@@H]1C(=O)N[C@H]1C[C@H]2C[C@@H]([C@@H]1C)C2(C)C [Compound 93] | > 10000 nM | > 9 nM
CNC(=O)c1cc(-c2cccc(CN3O[C@@H](CNC(C)=O)[C@@H]([C@H](C)O)[C@H]3C(=O)N[C@H]3C[C@H]4C[C@@H]([C@@H]3C)C4(C)C)c2OC)cc(N(C)C)c1 [Compound 77] | 1000 to 5000 nM | 5 to 9 nM
COc1c(CN2O[C@@H](CNC(C)=O)[C@@H]([C@H](C)O)[C@H]2C(=O)N[C@H]2C[C@H]3C[C@@H]([C@@H]2C)C3(C)C)cccc1-c1cc(C(=O)NCCc2ccccc2)cc(N(C)C)c1 [Compound 76] | > 10000 nM | 5 to 9 nM
COc1c(CN2O[C@@H](CO)[C@@H]([C@H](C)O)[C@H]2C(=O)N[C@H]2C[C@H]3C[C@@H]([C@@H]2C)C3(C)C)cccc1-c1cc(C(=O)N2CCN(C)C[C@@H]2Cc2ccccc2)cc(N(C)C)c1 [Compound 193] | 1000 to 5000 nM | 1 to 5 nM
CNC(=O)c1cc(-c2cccc(CN3O[C@@H](CNC(C)C)[C@@H]([C@H](C)O)[C@H]3C(=O)N[C@H]3C[C@H]4C[C@@H]([C@@H]3C)C4(C)C)c2OC)cc(N(C)C)c1 [Compound 97] | > 10000 nM | > 9 nM
COc1c(CN2O[C@@H](CN)[C@@H]([C@H](C)O)[C@H]2C(=O)N[C@H]2C[C@H]3C[C@@H]([C@@H]2C)C3(C)C)cccc1-c1cc(C(=O)N[C@@H](Cc2ccccc2)CN(C)C)cc(N(C)C)c1 [Compound 54] | > 10000 nM | 1 to 5 nM
COc1c(CN2O[C@@H](CN)[C@@H]([C@H](C)O)[C@H]2C(=O)N[C@H]2C[C@H]3C[C@@H]([C@@H]2C)C3(C)C)cccc1-c1cc(C(=O)NCCc2ccccn2)cc(N(C)C)c1 [Compound 64] | > 10000 nM | < 1 nM
COc1c(CN2O[C@@H](CO)[C@@H]([C@H](C)O)[C@H]2C(=O)N[C@H]2C[C@H]3C[C@@H]([C@@H]2C)C3(C)C)cc(Cl)cc1-c1cc(C(=O)NCCc2ccccc2)cc(N(C)C)c1 [Compound 321] | 5000 to 10000 nM | > 9 nM
CNC(=O)c1cc(-c2cccc(CN3O[C@@H](CNCc4ccccc4)[C@@H]([C@H](C)O)[C@H]3C(=O)N[C@H]3C[C@H]4C[C@@H]([C@@H]3C)C4(C)C)c2OC)cc(N(C)C)c1 [Compound 85] | 5000 to 10000 nM | > 9 nM
CNC(=O)c1cc(-c2cccc(CN3O[C@@H](CNC(=O)CCC(=O)OC)[C@@H]([C@H](C)O)[C@H]3C(=O)N[C@H]3C[C@H]4C[C@@H]([C@@H]3C)C4(C)C)c2OC)cc(N(C)C)c1 [Compound 78] | 5000 to 10000 nM | > 9 nM
C[C@@H]1[C@@H](NC(=O)[C@@H]2[C@H]([C@H](C)O)[C@H](CN)ON2Cc2cccc(-c3cc(C(=O)N[C@@H](Cc4ccccc4)CN(C)C)cc(N(C)C)c3)c2F)C[C@H]2C[C@@H]1C2(C)C [Compound 38] | > 10000 nM | < 1 nM

Now from value to compound:

Ki [1] | Ki [2] | SMILES
< 1000 nM | < 1 nM | COc1c(CN2O[C@@H](CO)[C@@H]([C@H](C)O)[C@H]2C(=O)N[C@H]2C[C@H]3C[C@@H]([C@@H]2C)C3(C)C)cccc1-c1cc2c(c(C(=O)N[C@H](CN(C)C)CC(C)(C)C)c1)OC(C)(C)C2 [Compound 196]
1000 to 5000 nM | > 9 nM | COc1c(CN2O[C@@H](CN)[C@@H]([C@H](C)O)[C@H]2C(=O)N[C@H]2C[C@H]3C[C@@H]([C@@H]2C)C3(C)C)cccc1-c1cc(C(=O)O)cc(N(C)C)c1 [Compound 71]
< 1000 nM | < 1 nM | COc1c(CN2O[C@@H](CO)[C@@H]([C@H](C)O)[C@H]2C(=O)N[C@H]2C[C@H]3C[C@@H]([C@@H]2C)C3(C)C)cccc1-c1cc(CN)cc(C(=O)N[C@@H](Cc2ccccc2)CN(C)C)c1 [295 amine]
1000 to 5000 nM | < 1 nM | CCN1CCC[C@@H]1CNC(=O)c1cc(-c2cccc(CN3O[C@@H](CN)[C@@H]([C@H](C)O)[C@H]3C(=O)N[C@H]3C[C@H]4C[C@@H]([C@@H]3C)C4(C)C)c2OC)cc(N(C)C)c1 [Compound 60]
< 1000 nM | < 1 nM | C[C@@H]1[C@@H](NC(=O)[C@@H]2[C@H]([C@H](C)O)[C@H](CO)ON2Cc2cccc(-c3cc(C(=O)N[C@H](CN(C)C)CC(C)(C)C)cc(N(C)C)c3)c2OCC2CC2)C[C@H]2C[C@@H]1C2(C)C [Compound 33]
1000 to 5000 nM | 1 to 5 nM | COc1c(CN2O[C@@H](CO)[C@@H]([C@H](C)O)[C@H]2C(=O)N[C@H]2C[C@H]3C[C@@H]([C@@H]2C)C3(C)C)cccc1-c1cc(C(=O)N[C@@H](CN(C)C)CS(=O)(=O)C(C)(C)C)cc(N(C)C)c1 [Compound 170]
1000 to 5000 nM | < 1 nM | COc1c(CN2O[C@@H](CN)[C@@H]([C@H](C)O)[C@H]2C(=O)N[C@H]2C[C@H]3C[C@@H]([C@@H]2C)C3(C)C)cccc1-c1cc(C(=O)N[C@H](CN(C)C)[C@H](O)c2ccccc2)cc(N(C)C)c1 [Compound 272]
< 1000 nM | 1 to 5 nM | COc1c(CN2O[C@@H](CO)[C@@H]([C@H](C)O)[C@H]2C(=O)N[C@H]2C[C@H]3C[C@@H]([C@@H]2C)C3(C)C)cccc1-c1cc(C(=O)N[C@@H](CC(C)C)C(N)=O)cc(N(C)C)c1 [Compound 260]
< 1000 nM | < 1 nM | CCOc1c(CN2O[C@@H](CO)[C@@H]([C@H](C)O)[C@H]2C(=O)N[C@H]2C[C@H]3C[C@@H]([C@@H]2C)C3(C)C)cccc1-c1cc(C(=O)N[C@@H](Cc2cccs2)CN(C)C)cc(N(C)C)c1 [Compound 25]
< 1000 nM | < 1 nM | COc1c(CN2O[C@@H](CO)[C@@H]([C@H](C)O)[C@H]2C(=O)N[C@H]2C[C@H]3C[C@@H]([C@@H]2C)C3(C)C)cccc1-c1cc2c(c(C(=O)N[C@H](CN(C)C)CC(C)(C)C)c1)OCO2 [Compound 202]
< 1000 nM | < 1 nM | COc1c(CN2O[C@@H](CO)[C@@H]([C@H](C)O)[C@H]2C(=O)N[C@H]2C[C@H]3C[C@@H]([C@@H]2C)C3(C)C)cccc1-c1cc(C(=O)N[C@@H](Cc2ccccc2)CN(C)C)cc(N(C)CC(N)=O)c1 [Compound 310]
< 1000 nM | < 1 nM | COc1c(CN2O[C@@H](CO)[C@@H]([C@H](C)O)[C@H]2C(=O)N[C@H]2C[C@H]3C[C@@H]([C@@H]2C)C3(C)C)cccc1-c1cc(C(=O)N[C@H](CN(C)C)[C@@H](NS(C)(=O)=O)c2ccccc2)cc(N(C)CCO)c1 [Compound 290]
< 1000 nM | < 1 nM | CCOc1c(CN2O[C@@H](CO)[C@@H]([C@H](C)O)[C@H]2C(=O)N[C@H]2C[C@H]3C[C@@H]([C@@H]2C)C3(C)C)cccc1-c1cc(C(=O)N[C@@H](Cc2ccccc2)CN(C)C)cc(N(C)C)c1 [Compound 15]
< 1000 nM | < 1 nM | COc1c(CN2O[C@@H](CO)[C@@H]([C@H](C)O)[C@H]2C(=O)N[C@H]2C[C@H]3C[C@@H]([C@@H]2C)C3(C)C)cccc1-c1cc(C(=O)N[C@@H](CC(C)C)CN2CCN(C)CC2)cc(N(C)C)c1 [Compound 314]
< 1000 nM | < 1 nM | COc1c(CN2O[C@@H](CO)[C@@H]([C@H](C)O)[C@H]2C(=O)N[C@H]2C[C@H]3C[C@@H]([C@@H]2C)C3(C)C)cccc1-c1cc(C(=O)N2[C@H](CN(C)C)CC[C@@H]2c2ccccc2)cc(N(C)C)c1 [Compound 247]
